Experimental data from paper PMC11859040 (Pharmaceuticals, 2025).
≈ marks a conversion by molar mass, not a printed value.

Key:
[1] = Cell viability in HQ-induced oxidative stress (MTT); assay type: cell-based, human; details: human, ARPE-19 cells; ARPE-19, 600 μM HQ alone
Protocol: (§1) […] Cells were rinsed once using an FBS-free medium to remove any residual CUR-SNEDDS. Afterward, the oxidative stress-provoking agent, HQ (Sigma-Aldrich), was added. The cells were exposed to 600 μM HQ for 2 h to achieve 60–70% viability, as determined in the control samples [44]. Cell viability was assessed using the MTT assay. Cells were assessed with microscopy before the viability test to confirm the correlation of the absorbance readings from the MTT assay.

ARPE-19 cells [2] = assay: Indirect quantification of CUR uptake (CUR recovered in medium); assay type: cell-based, human
Protocol: ARPE-19 cells were seeded on acid-etched coverslips placed into a 6-well plate with a seeding density of 850,000 cells/well and incubated at 37 °C for 24 h. The cells were then incubated with media containing AC at the same concentration that was used for the cytotoxicity experiment. After 3 h of exposure to the AC and C formulations, the coverslips were removed, washed twice with PBS, and fixed with 4% paraformaldehyde (PFA) for 15 min. Subsequently, the PFA was removed, followed by two washes with PBS. […] Cell imaging was conducted using a ZEISS Axio Imager M2 fluorescent microscope (Carl Zeiss Microscopy Deutschland GmbH, Oberkochen, Germany). […] The experiments were conducted 24 h after seeding, using an FBS-free medium. The cells were rinsed once with a serum-free medium to remove the FBS residues and then exposed to 0.1–2 μM concentrations of SNEDD-CUR diluted in a medium. After a 3 h exposure period, the medium was removed and collected into another 96-well plate.

ARPE-19 cells [3] = assay: Cell viability in HQ-induced oxidative stress (MTT); assay type: cell-based, human; details: ARPE-19, 600 μM HQ
Protocol: as §1

[4] = CUR solubility in different vehicles (oils and surfactants); assay type: physicochemical; details: for solubility at 24 h: 25 °C, thermodynamic from solid
Protocol: Different types of oils were selected based on biocompatibility and biodegradability: Mygliol® 812, Capryol® PGMC and Capryol® 90, Tegin® O, Isopropylmyristate (IPM), and Castor oil. Five surfactants, including Tween® 20, Tween® 80, Cremophor EL®, Solutol ®HS15, and Transcutol® P, were selected for the experiment in order to investigate the best materials for CUR-SNEDDS preparation. […] The mixtures were stirred (350 rpm) using a magnetic stirrer for 24 h. The samples were covered in order to prevent photo-degradation. […] The absorbance reading occurred at 422 nm.

[5] = Stability of CUR in PBS and in SNEDDS under storage conditions; assay type: physicochemical; details: PBS, 6 h
Protocol: HPLC analysis was performed on a reversed-phase C18 column (4.6 mm × 150 mm, 5 μm, ZORBAX Eclipse SB-C18) at 25 °C. The mobile phase was composed of water with 4% acetic acid and acetonitrile (44:56, v/v), filtered through a 0.22 μm Milli-pore filter and degassed prior to use. The flow rate was 0.850 mL/min, and the eluent was detected by a DAD detector at 430 nm.
The preparation of the sample AC followed the procedure described in Section 4.3. The sample was divided into four glass vials, with each set of vials being stored under different conditions, namely at 4 °C dark, 25 °C dark, 25 °C light, and 40 °C dark, to assess the typical storage conditions and investigate possible protection from degradation phenomena. Sample C was prepared differently. […] The mixture was then subjected to magnetic stirring at 350 rpm for 20 min. After stirring, the tube was centrifuged at 13,000 rpm for 20 min at 25 °C. The supernatant was collected and divided into four glass vials, each representing a different storage condition compared to the AC sample. […] HPLC analysis was employed to detect any variations in absorbance.

HCE cells = assay: Cytocompatibility, MTT assay, HCE cells; assay type: cell-based, human; details: 5 μM CUR, 3 h, vs control
Protocol: HCE cells were cultured at 37 °C and 5% CO2 using a growth medium consisting of 1:1 DMEM/F12 (Gibco by Life Technologies Limited, Paisley, UK), 15% FBS (fetal bovine serum; Gibco by Life Technologies Limited, Paisley, UK), 100 U/mL penicillin, 0.1 mg/mL streptomycin (penicillin/streptomycin solution from EuroClone spa, Pero, Italy), 0.3 mg/mL L-glutamine (EuroClone spa, Pero, Italy), 10 ng/mL EGF (Recombinant Human Epidermal Growth Factor; Gibco by Life Technologies Corporation, Carlsbad, CA, USA), 5 μg/mL human recombinant insulin (Gibco by Life Technologies Corporation, Grand Island, NY, USA), and 0.5% sterile filtrated DMSO (Sigma-Aldrich, St. Louis, MO, USA), 0.1 μg/mL cholera toxin (Sigma-Aldrich, St. Louis, MO, USA). The fresh growth medium was changed for the cells every 2–3 days. When reaching a 75–80% confluence, the cells were either subcultured 1:5–1:30 or seeded for the experiment. Upon confluence, the cells were washed with 1xDPBS (Gibco by Life Technologies Limited, Paisley, UK) and detached with 0.05% trypsin–EDTA (Gibco by Life Technologies Limited, Paisley, UK). […] Cell viability was assessed using the 3-(4,5-dimethyl-thiazol-2-yl)-2,5-diphenyltetrazolium bromide (MTT) assay. Cells were assessed with microscopy before the viability test to confirm the correlation of the absorbance readings from the MTT assay.

cell proliferation = details: cited from earlier work
ARPE-19 cells [6] = assay: Cytocompatibility, MTT assay, ARPE-19 cells; assay type: cell-based, human; details: 5 μM CUR, 3 h, vs control
Protocol: The ARPE-19 cell line obtained from the American Type Culture Collection (ATCC, Manassas, VA, USA) was used in the study. Cells were cultured in Dulbecco’s modified eagle medium/nutrition mix F-12 (1:1; Gibco, Paisley, UK) supplemented with 10% fetal bovine serum (FBS; Hyclone, Logan, UT, USA), 100 U/mL penicillin (Lonza, Walkersville, MD), and 2 mM L-glutamine (Lonza, Walkersville, MD, USA). The cells were grown at 37 °C in a humidified 5% CO2 atmosphere. The experiments were performed 24 h after seeding using an FBS-free medium. […] The cells were exposed for 3 h before the cell viability tests. Cell viability was assessed using the MTT assay. Cells were assessed with microscopy before the viability test to confirm the correlation of the absorbance readings from the MTT assay.

[7] = Solubility of CUR in water (inherent vs apparent with SNEDDS); assay type: physicochemical

| SMILES | viability at 2 h, 600 μM [1] [%] | CUR recovered in the medium (not internalized) (ARPE-19 cells [2]; ARPE-19, 3 h, listed as free CUR) [%] | CUR internalized (ARPE-19 cells [2]; ARPE-19, concentration not stated (discussion)) [%] | CUR internalized inside the cells (ARPE-19 cells [2]; ARPE-19, higher concentrations such as 1 μM and 2 μM, 3 h) [%] | Effect on cell viability compared to cells exposed to HQ (ARPE-19 cells [3]) | solubility at 24 h ([4]; aqueous with cosolvent or surfactant or cyclodextrin, in Tween 80) [µg/mL] | solubility at 24 h ([4]; oil or lipid, in Capryol 90) [µg/mL] | solubility at 24 h ([4]; organic solvent or mixture, in Transcutol P) [µg/mL] | Solubility of CUR ([4]; in Capryol PGMC) [µg/mL] | CUR remaining / recovered ([5]; 4 °C) [%] | CUR remaining / recovered ([5]; 25 °C (r.t.) dark) | CUR remaining / recovered ([5]; 25 °C (r.t.) dark, listed as Native CUR) [%] | CUR remaining / recovered ([5]; 25 °C light) | CUR remaining / recovered ([5]; 40 °C dark) | Reduction in cell viability (HCE cells) | IC50 (cell proliferation; anticancer agent and cell proliferation blocker) [µM] | Concentrations at which CUR acts as anticancer agent and cell proliferation blocker (cell proliferation) [µM] | Reduction in cell viability (ARPE-19 cells [6]) | solubility [7] [µg/mL] |
| --- | --- | --- | --- | --- | --- | --- | --- | --- | --- | --- | --- | --- | --- | --- | --- | --- | --- | --- | --- |
| Oc1ccc(O)cc1 [HQ, hydroquinone] | 70 | – | – | – | – | – | – | – | – | – | – | – | – | – | – | – | – | – | – |
| COc1cc(/C=C/C(=O)CC(=O)/C=C/c2ccc(O)c(OC)c2)ccc1O [CUR, Curcumin] | – | 100 | 0 | 1 | no significant difference | 6800 (≈ 18.5 mM) | 8360 (≈ 22.7 mM) | 4610 (≈ 12.5 mM) | 8000 | 57 | less than 10% | 9 | completely degraded | completely degraded | not observed | ~10 | 5 to 10 | not observed | < 1 |
